# Test results from article PMC12542817, “LaIT6: A Novel Insect-Selective K^+-Channel Toxin from Liocheles australasiae Scorpion Venom” (Molecules, 2025).
# Like-named read-outs stand apart in the source and are kept apart here. Where a SMILES comes first, the peptide text is derived from it. Where no end group is shown, it is not given here.
# Experiments:
# [1] = test system: crickets (Acheta domesticus); test: Insecticidal activity against crickets (injection, LD50); assay type: in vivo; conditions: injection into abdominal region in distilled water; Acheta domesticus 45–55 mg; ten insects per dose; dead insects counted 48 h after injection; brackets = 95% confidence interval
# Procedure: (§1) The insecticidal activity was evaluated as previously described. In this study, we used crickets (Acheta domesticus, 45–55 mg), houseflies (Musca domestica, 13–17 mg), silkworms (Bombyx mori, 225–275 mg), and cockroaches (Periplaneta americana, 75–225 mg). Each peptide in distilled water was injected into the abdominal region of insects. As a negative control, distilled water was used. Ten insects were used for each dose, except for doses of 3.1 and 6.3 nmol in LaIT6(R24A), for which 15 and 20 insects were used, respectively. The number of dead insects was counted 48 h after injection (24 h after injection in the case of houseflies). […] Toxicity to mammals was evaluated as previously described. The sample solution in a PBS buffer was injected intracerebroventricularly into mice (male Slc:ICR strain, 20 g) after anesthetizing with isoflurane. As a negative control, PBS buffer was used. Three animals were used for each measurement, and toxic symptoms were monitored for up to 24 h. The experimental protocol was approved by the Ethical Committee for the Welfare of Animals at Kyoto University.
# Shaker-IR K+ channel = target: T1, Shaker-IR K+ channel (Drosophila melanogaster, UniProt P08510, DEL6-46); test: Two-electrode voltage clamp on Shaker-IR K+ channel expressed in Xenopus oocytes; assay type: biochemical; conditions: for IC50: TEVC in Xenopus laevis oocytes, ND96 pH 7.4, 18–22 °C, n ≥ 3 per concentration, read-out: IC50, inhibition of Shaker-IR K+ channel
# T1 construct: expressed in transfected cells; host or cells: Xenopus laevis oocytes injected with in-vitro-transcribed cRNA
# T1 sequence (P08510 with tags, fused parts or gaps DEL6-46): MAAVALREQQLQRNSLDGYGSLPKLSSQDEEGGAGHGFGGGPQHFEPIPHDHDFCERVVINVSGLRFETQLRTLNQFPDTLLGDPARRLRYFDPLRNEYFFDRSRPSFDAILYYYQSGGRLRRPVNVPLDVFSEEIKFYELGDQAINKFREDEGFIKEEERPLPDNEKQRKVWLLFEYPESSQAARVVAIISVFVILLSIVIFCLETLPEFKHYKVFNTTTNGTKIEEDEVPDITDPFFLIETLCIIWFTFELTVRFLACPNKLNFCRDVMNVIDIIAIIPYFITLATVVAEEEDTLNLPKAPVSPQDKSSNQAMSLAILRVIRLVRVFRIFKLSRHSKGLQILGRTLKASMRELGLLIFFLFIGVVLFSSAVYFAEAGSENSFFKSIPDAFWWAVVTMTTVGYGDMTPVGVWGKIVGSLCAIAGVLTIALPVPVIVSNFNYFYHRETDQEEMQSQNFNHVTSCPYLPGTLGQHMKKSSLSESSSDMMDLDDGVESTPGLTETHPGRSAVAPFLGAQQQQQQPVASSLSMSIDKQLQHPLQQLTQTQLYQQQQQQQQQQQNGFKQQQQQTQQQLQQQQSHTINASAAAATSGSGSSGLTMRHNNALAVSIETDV
# Procedure: Electrophysiological experiments were carried out in Xenopus laevis oocytes. Linearized plasmids encoding Shaker-IR, hKv1.1, and hKv1.2 channels were transcribed using the T7 mMESSAGE mMACHINE transcription kit (Ambion, Austin, TX, USA). Mature female animals were purchased from Nasco (Fort Atkinson, WI, USA) and were housed in the Aquatic Facility (KU Leuven) in compliance with the regulations of the European Union (EU) concerning the welfare of laboratory animals as declared in Directive 2010/63/EU. The use of X. laevis oocytes was approved by the Animal Ethics Committee of the KU Leuven with license number P186/2019. Stage V–VI oocytes were collected from anesthetized female X. laevis frogs as previously described, with the frogs anesthetized by placement in 0.1% tricaine solution (amino benzoic acid ethyl ester; Merck, Rahway, NJ, USA). Oocyte microinjection was performed using a microinjector (World Precision Instruments, Sarasota, FL, USA), with a programmed cRNA injection volume of 4–10 nL, depending on the channel subtype. The oocytes were incubated in an MBS solution (88 mM NaCl, 1 mM KCl, 2.5 mM NaHCO3, 1 mM MgSO4, and 5 mM HEPES, pH 7.8) supplemented with 50 mg/L gentamicin sulfate and 90 mg/L theophylline. Electrophysiological measurements were performed at room temperature (18–22 °C) using the two-electrode voltage clamp (TEVC) technique. Data were obtained using a GeneClamp 500 amplifier (Axon Instruments, Burlingame, CA, USA), and Clampex9 software (Axon Instruments, Union City, CA, USA) was used for data acquisition and storage. Glass micropipettes were produced using glass capillaries (borosilicate WPI 1B120-6) and drawn in a WPI (World Precision Instruments, Sarasota, FL, USA) manual stretcher. The bath and perfusion solutions were ND96 (96 mM NaCl, 2 mM KCl, 1.8 mM CaCl2, 2 mM MgCl2, and 5 mM HEPES, pH 7.4). Whole-cell currents of oocytes were recorded 1 to 3 days after injection. Current and voltage electrodes were filled with 3 M KCl, and their resistance was adjusted from 0.5 to 1.5 MΩ. […]
# [2] = test system: mice (male Slc:ICR strain); test: Mammalian toxicity, intracerebroventricular injection into mice; assay type: in vivo, mouse; conditions: injection dose 50 nmol/kg, in PBS, male Slc:ICR mice 20 g, three animals, monitored for up to 24 h
# Procedure: as §1
molecule,measurement,setting,value
"SVPPNIPCQVTNQCPKPCREATGRPNSKCINGRCKCY-OH (disulfide (positions not given here)) [LaIT6(COOH), LaIT6 analog, C-terminal amide group converted to a carboxyl group]","LD50, insecticidal activity against crickets",[1],19 (14–25) nmol/g
"CC[C@H](C)[C@@H]1NC(=O)[C@@H]2CSSC[C@H](NC(=O)[C@@H]3CCCN3C(=O)[C@@H](NC(=O)[C@H](CC(N)=O)NC(=O)[C@@H]3CCCN3C(=O)[C@@H]3CCCN3C(=O)[C@@H](NC(=O)[C@@H](N)CO)C(C)C)[C@@H](C)CC)C(=O)N[C@@H](CCC(N)=O)C(=O)N[C@@H](C(C)C)C(=O)N[C@@H]([C@@H](C)O)C(=O)N[C@@H](CC(N)=O)C(=O)N[C@@H](CCC(N)=O)C(=O)N[C@H]3CSSC[C@H](NC(=O)[C@H](CCCNC(=N)N)NC(=O)CNC(=O)[C@H](CC(N)=O)NC1=O)C(=O)N[C@@H](CCCCN)C(=O)N[C@H](C(=O)N[C@@H](Cc1ccc(O)cc1)C(N)=O)CSSC[C@H](NC(=O)[C@@H]1CCCN1C(=O)[C@H](CCCCN)NC(=O)[C@@H]1CCCN1C3=O)C(=O)N[C@@H](CCCNC(=N)N)C(=O)N[C@@H](CCC(=O)O)C(=O)N[C@@H](C)C(=O)N[C@@H]([C@@H](C)O)C(=O)NCC(=O)N[C@@H](CCCNC(=N)N)C(=O)N1CCC[C@H]1C(=O)N[C@@H](CC(N)=O)C(=O)N[C@@H](CO)C(=O)N[C@@H](CCCCN)C(=O)N2 [LaIT6] (HELM PEPTIDE1{S.V.P.P.N.I.P.C.Q.V.T.N.Q.C.P.K.P.C.R.E.A.T.G.R.P.N.S.K.C.I.N.G.R.C.K.C.Y.[am]}$PEPTIDE1,PEPTIDE1,8:R3-29:R3|PEPTIDE1,PEPTIDE1,14:R3-34:R3|PEPTIDE1,PEPTIDE1,18:R3-36:R3$$$V2.0)",IC50,Shaker-IR K+ channel; 95% CI 4.8–14 nM,8.2 nM
same,Mammalian toxicity (toxic symptoms) in mice,[2],did not observe any toxic symptoms
"CC[C@H](C)[C@@H]1NC(=O)[C@@H]2CSSC[C@H](NC(=O)[C@@H]3CCCN3C(=O)[C@@H](NC(=O)[C@H](CC(N)=O)NC(=O)[C@@H]3CCCN3C(=O)[C@@H]3CCCN3C(=O)[C@@H](NC(=O)[C@@H](N)CO)C(C)C)[C@@H](C)CC)C(=O)N[C@@H](CCC(N)=O)C(=O)N[C@@H](C(C)C)C(=O)N[C@@H]([C@@H](C)O)C(=O)N[C@@H](CC(N)=O)C(=O)N[C@@H](CCC(N)=O)C(=O)N[C@H]3CSSC[C@H](NC(=O)[C@H](CCCNC(=N)N)NC(=O)CNC(=O)[C@H](CC(N)=O)NC1=O)C(=O)N[C@@H](CCCCN)C(=O)N[C@H](C(=O)N[C@@H](Cc1ccc(O)cc1)C(N)=O)CSSC[C@H](NC(=O)[C@@H]1CCCN1C(=O)[C@H](CCCCN)NC(=O)[C@@H]1CCCN1C3=O)C(=O)N[C@@H](CCCNC(=N)N)C(=O)N[C@@H](CCC(=O)O)C(=O)N[C@@H](C)C(=O)N[C@@H]([C@@H](C)O)C(=O)NCC(=O)N[C@@H](CCCNC(=N)N)C(=O)N1CCC[C@H]1C(=O)N[C@@H](CC(N)=O)C(=O)N[C@@H](CO)C(=O)N[C@@H](C)C(=O)N2 [LaIT6(K28A)] (HELM PEPTIDE1{S.V.P.P.N.I.P.C.Q.V.T.N.Q.C.P.K.P.C.R.E.A.T.G.R.P.N.S.A.C.I.N.G.R.C.K.C.Y.[am]}$PEPTIDE1,PEPTIDE1,8:R3-29:R3|PEPTIDE1,PEPTIDE1,14:R3-34:R3|PEPTIDE1,PEPTIDE1,18:R3-36:R3$$$V2.0)",IC50,Shaker-IR K+ channel; 95% CI 0.81–6.7 µM,2300 nM
same,IC50 on Shaker-IR relative to wild-type LaIT6 (times higher),Shaker-IR K+ channel; ratio of IC50 LaIT6(K28A) to IC50 LaIT6,approximately 300 times
